Laboratory results published in ChEMBL document CHEMBL3217421, “Truncated militarinone fragments identified by total chemical synthesis induce neurite outgrowth” (Medchemcomm, 2013).
Activity calls are given as the source filed them. The rule behind the calls is not given here.

Columns and labels:
Format in all cases: functional, cell-based
PC-12 [1] = assay: Neuritogenic activity in rat PC12 cells assessed as induction of neurite outgrowth at 1 uM after 3 days using Giemsa staining by microscopic analysis
PC-12 [2] = assay: Neuritogenic activity in rat PC12 cells assessed as induction of neurite outgrowth at 20 uM after 3 days using Giemsa staining by microscopic analysis in presence of ERK1/2 inhibitor PD98059
PC-12 [3] = assay: Neuritogenic activity in rat PC12 cells assessed as induction of neurite outgrowth at 500 nM after 3 days using Giemsa staining by microscopic analysis
PC-12 [4] = assay: Neuritogenic activity in rat PC12 cells assessed as induction of neurite outgrowth at 20 uM after 3 days using Giemsa staining by microscopic analysis
PC-12 [5] = assay: Neuritogenic activity in rat PC12 cells assessed as induction of neurite outgrowth at 2 uM after 3 days using Giemsa staining by microscopic analysis
PC-12 [6] = assay: Neuritogenic activity in rat PC12 cells assessed as induction of neurite outgrowth at 40 uM after 3 days using Giemsa staining by microscopic analysis

Row | SMILES | Activity (PC-12 [4]) | Activity (PC-12 [6]) | other results
1 | CCOC(=O)c1c(OC)c(-c2ccc(O)c(OC)c2)c[nH]c1=O | Active |  | Activity (PC-12 [1]): Active; Activity (PC-12 [2]): inactive; Activity (PC-12 [3]): inactive; Activity (PC-12 [5]): Active
2 | CCOC(=O)c1c(O)c(-c2ccc(O)cc2)c[nH]c1=O | Active |  | 
3 | CCOC(=O)c1c(OC)c(-c2ccc(N)cc2)c[nH]c1=O |  | inactive | 
4 | CCOC(=O)c1c(OC)c(-c2ccncc2)c[nH]c1=O |  | inactive | 
5 | CCOC(=O)c1c(OC)c(-c2ccc(F)cc2)c[nH]c1=O |  | inactive | 
6 | CCOC(=O)c1c(OC)c(-c2ccc(OC)cc2)cn(C)c1=O | inactive |  | 
7 | CCOC(=O)c1c(OC)c(-c2ccc(C(C)(C)C)cc2)c[nH]c1=O |  | inactive | 
8 | CCOC(=O)c1c(OC)c(-c2ccc(OC)cc2)c[nH]c1=O | inactive |  | 
9 | CCOC(=O)c1c(OC)c(-c2ccc(NC(=O)OC(C)(C)C)cc2)c[nH]c1=O |  | inactive | 
10 | CCOC(=O)c1c(OC)c(-c2ccc(O)cc2)cn(C)c1=O | Active |  | 
11 | COc1cc(-c2cccnc2)ccc1O | inactive |  | 
12 | CCOC(=O)c1c(OC)c(-c2ccc(O)cc2)c[nH]c1=O | Active |  | 
13 | CCOC(=O)c1c(OC)c(-c2cccnc2)c[nH]c1=O |  | inactive | 
14 | CCOC(=O)c1c(OC)c(-c2ccccc2)c[nH]c1=O |  | inactive | 
